Laboratory results published in US20250144067A1, “PERSONALIZED STARVATION THERAPY FOR CANCER” (Faeth Therapeutics, Inc., priority 2021, published 2025).
Counter-ions that a name gives are not always drawn. Like-named read-outs stand apart in the source and are kept apart here.

Legend:
[1] = system: NCI-H292 lung cancer cells; experiment: FDA drug screening, complete media vs cholesterol-free media with simvastatin (TABLE 2); type: cell-based, human
[2] = system: NCI-H292 lung cancer cells; experiment: FDA drug screening, complete media vs cholesterol-free media without statin (TABLE 1); type: cell-based, human
[3] = NCI-H292 cells, FDA drug library screen, cholesterol-free media with simvastatin 0.04 μM
[4] = NCI-H292 cells, FDA drug library screen, complete media
[5] = complete media minus cholesterol-free media + simvastatin, >0 enhanced anti-cancer activity, about 0 neutral, <0 antagonist
[6] = Complete minus Cholesterol-free, >0 enhanced anti-cancer activity, about 0 neutral, <0 antagonist
[7] = NCI-H292 cells, cholesterol-free media without statin, FDA drug library screen
[8] = NCI-H292 cells, complete media, FDA drug library screen
[9] = complete media vs cholesterol-free media + simvastatin (0.04 μM), >0 enhanced anti-cancer activity, about 0 neutral, <0 antagonist
[10] = Complete minus Cholesterol-free, greater than 0 enhanced anti-cancer activity, about 0 neutral, below 0 antagonists
[11] = NCI-H292 cells in cholesterol-free media without statin
[12] = NCI-H292 cells in complete media
[13] = NCI-H292 cells, cholesterol-free media with simvastatin 0.04 μM, FDA drug library screen (TABLE 2)
[14] = NCI-H292 cells, complete media, FDA drug library screen (TABLE 2)
[15] = Complete minus Cholesterol-free, […]
[16] = NCI-H292 cells, FDA drug library screen, cholesterol-free media without statin
[17] = complete media minus cholesterol-free media + simvastatin (0.04 μM), >0 enhanced anti-cancer activity, about 0 neutral, <0 antagonist
[18] = NCI-H292 cells, cholesterol-free media without statin
[19] = complete vs cholesterol-free media, greater than 0 enhanced anti-cancer activity, about 0 neutral, below 0 antagonists
[20] = complete vs cholesterol-free media, >0 enhanced anti-cancer activity, about 0 neutral, <0 antagonist
[21] = NCI-H292 cells, FDA library drug in cholesterol-free media with simvastatin 0.04 μM
[22] = NCI-H292 cells, FDA library drug in complete media
[23] = NCI-H292 cells, drug in cholesterol-free media with simvastatin 0.04 μM
[24] = NCI-H292 cells, drug in complete media
[25] = Complete minus Cholesterol-free, greater than 0 enhanced anti-cancer activity, about 0 neutral, below 0 antagonist
[26] = NCI-H292 cells, cholesterol-free media with simvastatin 0.04 μM, […]
[27] = NCI-H292 cells, complete media, […]
[28] = complete media minus cholesterol-free media + simvastatin, […]

Cc1ccc(Nc2nccc(N(C)c3ccc4c(C)n(C)nc4c3)n2)cc1S(N)(=O)=O [Pazopanib]
Cholesterol-free media + simvastatin (0.04 μM) [1, 3]: 1.156
Complete Media [1, 4]: 1.457
Difference [1, 5]: 0.30
Difference [2, 6]: 0.02
Cholesterol-free [2, 7]: 1.084
Complete [2, 8]: 1.105

CN(CC(=O)O)C(=N)N [Creatine]
Cholesterol-free media + simvastatin (0.04 μM) [1, 3]: 1.925
Complete Media [1, 4]: 1.831
Difference [1, 9]: −0.09
Difference [2, 10]: −0.96
Cholesterol-free [2, 11]: 2.303
Complete [2, 12]: 1.348

CC[C@H](C)[C@H](NC(=O)[C@H](CCC(=O)O)NC(=O)[C@H](CO)NC(=O)[C@@H](NC(=O)[C@@H](N)CO)C(C)C)C(=O)N[C@@H](CCC(N)=O)C(=O)N[C@@H](CC(C)C)C(=O)N[C@@H](CCSC)C(=O)N[C@@H](Cc1cnc[nH]1)C(=O)N[C@@H](CC(N)=O)C(=O)N[C@@H](CC(C)C)C(=O)NCC(=O)N[C@@H](CCCCN)C(=O)N[C@@H](Cc1cnc[nH]1)C(=O)N[C@@H](CC(C)C)C(=O)N[C@@H](CC(N)=O)C(=O)N[C@@H](CO)C(=O)N[C@@H](CCSC)C(=O)N[C@@H](CCC(=O)O)C(=O)N[C@@H](CCCN=C(N)N)C(=O)N[C@H](C(=O)N[C@@H](CCC(=O)O)C(=O)N[C@@H](Cc1c[nH]c2ccccc12)C(=O)N[C@@H](CC(C)C)C(=O)N[C@@H](CCCN=C(N)N)C(=O)N[C@@H](CCCCN)C(=O)N[C@@H](CCCCN)C(=O)N[C@@H](CC(C)C)C(=O)N[C@@H](CCC(N)=O)C(=O)N[C@@H](CC(=O)O)C(=O)N[C@H](C(=O)N[C@@H](Cc1cnc[nH]1)C(=O)N[C@@H](CC(N)=O)C(=O)N[C@@H](Cc1ccccc1)C(=O)O)C(C)C)C(C)C [Teriparatide]
Cholesterol-free media + simvastatin (0.04 μM) [1, 13]: 1.048
Complete Media [1, 14]: 1.02
Difference ([1]; complete media minus cholesterol-free media + simvastatin (0.04 μM), […]): −0.03
Difference [2, 15]: −0.19
Cholesterol-free [2, 16]: 1.061
Complete [2, 4]: 0.8757

COCCOC(=O)C1=C(C)NC(C)=C(C(=O)OC(C)C)C1c1cccc([N+](=O)[O-])c1 (centres unmarked) [Nimodipine]
Cholesterol-free media + simvastatin (0.04 μM) [1, 13]: 1.215
Complete Media [1, 14]: 1.187
Difference [1, 17]: −0.03
Cholesterol-free [2, 18]: 1.269
Complete ([2]; NCI-H292 cells, complete media): 0.8907
Difference [2, 19]: −0.38

O=C(OCc1ccccc1)c1ccccc1 [Benzyl benzoate]
Cholesterol-free media + simvastatin (0.04 μM) [1, 13]: 0.8319
Complete Media [1, 14]: 0.7979
Difference [1, 17]: −0.03
Cholesterol-free [2, 7]: 0.6319
Complete [2, 8]: 1.132
Difference [2, 20]: 0.50

O=C(O)c1ccccc1 [Benzoic acid]
Cholesterol-free media + simvastatin (0.04 μM) [1]: 1.277
Difference [1]: −0.11
Cholesterol-free [2]: 1.119
Complete [2]: 1.063
Difference [2]: −0.06

CN1CCN(C2=Nc3cc(Cl)ccc3Nc3ccccc32)CC1 [Clozapine]
Cholesterol-free media + simvastatin (0.04 μM) [1, 3]: 0.8452
Complete Media [1, 4]: 1.094
Difference [1, 5]: 0.25
Difference [2, 6]: −0.23
Cholesterol-free [2, 18]: 1.346
Complete ([2]; NCI-H292 cells, complete media): 1.114

CCN(CC)CCNC(=O)c1c(C)[nH]c(/C=C2\C(=O)Nc3ccc(F)cc32)c1C [Sunitinib]
Cholesterol-free media + simvastatin (0.04 μM) [1, 21]: 1.48
Complete Media [1, 22]: 1.121
Difference [1, 9]: −0.36
Difference [2, 6]: −0.01
Cholesterol-free [2, 7]: 0.5331
Complete [2, 8]: 0.523

C=CC(N)CCC(=O)O (centres unmarked) [Vigabatrin (hydrochloride)]
Cholesterol-free media + simvastatin (0.04 μM) [1, 13]: 1.122
Complete Media [1, 14]: 1.063
Difference [1, 17]: −0.06
Difference [2, 10]: −0.74
Cholesterol-free [2, 11]: 1.769
Complete [2, 12]: 1.024

Leuprolide (Acetate)
Cholesterol-free media + simvastatin (0.04 μM) [1]: 1.032
Complete Media [1]: 1.087
Difference [1]: 0.06
Cholesterol-free [2]: 1
Complete [2]: 0.6877
Difference [2]: −0.31

Cc1ccc(C(=O)c2cc(O)c(O)c([N+](=O)[O-])c2)cc1 [Tolcapone]
Cholesterol-free media + simvastatin (0.04 μM) [1, 23]: 1.114
Complete Media [1, 24]: 0.8994
Difference [1, 9]: −0.21
Difference [2, 25]: −0.19
Cholesterol-free [2, 16]: 1.149
Complete [2, 4]: 0.9627

CCC(=O)OCC(=O)[C@@]1(OC(=O)CC)[C@@H](C)C[C@H]2[C@@H]3CCC4=CC(=O)C=C[C@]4(C)[C@@]3(Cl)[C@@H](O)C[C@@]21C [Beclometasone dipropionate]
Cholesterol-free media + simvastatin (0.04 μM) [1, 21]: 1.133
Complete Media [1, 22]: 0.8544
Difference [1, 9]: −0.28
Difference [2, 25]: −0.19
Cholesterol-free [2, 16]: 1.005
Complete [2, 4]: 0.8203

CCCCCCCCCCCCCCCC[n+]1ccccc1.O.[Cl-] [Cetylpyridinium (chloride monohydrate)]
Cholesterol-free media + simvastatin (0.04 μM) [1, 26]: 0.1519
Complete Media [1, 27]: 0.2714
Difference [1, 28]: 0.12
Difference [2, 15]: 0.03
Cholesterol-free [2, 7]: −0.01651
Complete [2, 8]: 0.01449

CCOC(=O)[C@H](CCc1ccccc1)N[C@@H](C)C(=O)N1Cc2cc(OC)c(OC)cc2C[C@H]1C(=O)O [Moexipril (hydrochloride)]
Cholesterol-free media + simvastatin (0.04 μM) [1, 21]: 1.452
Complete Media [1, 22]: 1.081
Difference [1, 9]: −0.37
Difference [2, 6]: 0.02
Cholesterol-free [2, 7]: 1.004
Complete [2, 8]: 1.024

CC(C(=O)O)c1cccc(Oc2ccccc2)c1 (centres unmarked) [Fenoprofen (Calcium hydrate)]
Cholesterol-free media + simvastatin (0.04 μM) [1, 23]: 1.224
Complete Media [1, 24]: 1.032
Difference [1, 9]: −0.19
Difference [2, 6]: −0.23
Cholesterol-free [2, 18]: 1.081
Complete ([2]; NCI-H292 cells, complete media): 0.8539

O=C(CCCN1CCC(O)(c2ccc(Cl)cc2)CC1)c1ccc(F)cc1 [Haloperidol]
Cholesterol-free media + simvastatin (0.04 μM) ([1]; NCI-H292 cells, cholesterol-free media with simvastatin 0.04 μM, cell growth value in FDA drug screen): 0.8115
Complete Media ([1]; NCI-H292 cells, complete media, cell growth value in FDA drug screen): 0.843
Difference [1, 5]: 0.03
Cholesterol-free [2, 7]: 0.4782
Complete [2, 8]: 0.7598
Difference [2, 20]: 0.28

CCN[C@@H]1C[C@H](N)[C@@H](O[C@H]2OC(CN)=CC[C@H]2N)[C@H](O)[C@H]1O[C@H]1OC[C@](C)(O)[C@H](NC)[C@H]1O.CCN[C@@H]1C[C@H](N)[C@@H](O[C@H]2OC(CN)=CC[C@H]2N)[C@H](O)[C@H]1O[C@H]1OC[C@](C)(O)[C@H](NC)[C@H]1O.O=S(=O)(O)O.O=S(=O)(O)O.O=S(=O)(O)O.O=S(=O)(O)O.O=S(=O)(O)O [Netilmicin (sulfate)]
Cholesterol-free media + simvastatin (0.04 μM) [1, 3]: 1.19
Complete Media [1, 4]: 1.538
Difference [1, 5]: 0.35
Cholesterol-free [2, 18]: 1.778
Complete ([2]; NCI-H292 cells, complete media): 1.428
Difference [2, 19]: −0.35

Cc1cccc(N(C)C(=S)Oc2ccc3ccccc3c2)c1 [Tolnaftate]
Cholesterol-free media + simvastatin (0.04 μM) [1, 23]: 1.419
Complete Media [1, 24]: 1.24
Difference [1, 9]: −0.18
Difference [2, 10]: −0.53
Cholesterol-free [2, 11]: 1.723
Complete [2, 12]: 1.191

C#C[C@]1(O)CC[C@H]2[C@@H]3CCc4cc(O)ccc4[C@H]3CC[C@@]21C [Ethynyl Estradiol]
Cholesterol-free media + simvastatin (0.04 μM) [1, 23]: 1.254
Complete Media [1, 24]: 1.055
Difference [1, 9]: −0.20
Cholesterol-free [2, 7]: 0.8735
Complete [2, 8]: 1.393
Difference [2, 20]: 0.52

CCCCCCCCCCC[C@@H](C[C@@H]1OC(=O)[C@H]1CCCCCC)OC(=O)[C@H](CC(C)C)NC=O [Orlistat]
Cholesterol-free media + simvastatin (0.04 μM) [1, 3]: 1.19
Complete Media [1, 4]: 1.622
Difference [1, 5]: 0.43
Cholesterol-free [2, 7]: 1.018
Complete [2, 8]: 1.513
Difference [2, 20]: 0.49

C[C@@H](O)[C@H]1C(=O)N2C(C(=O)O)=C(SCCN=CN)C[C@H]12 [Imipenem monohydrate]
Cholesterol-free media + simvastatin (0.04 μM) [1, 13]: 0.9916
Complete Media [1, 14]: 0.9548
Difference [1, 17]: −0.04
Difference [2, 6]: −0.03
Cholesterol-free [2, 7]: 1.1
Complete [2, 8]: 1.066

COc1ccc2c3c1O[C@H]1C[C@@H](O)C=C[C@@]31CCN(C)C2 [Galanthamine (hydrobromide)]
Cholesterol-free media + simvastatin (0.04 μM) [1, 26]: 1.411
Complete Media [1, 27]: 1.432
Difference [1, 28]: 0.02
Difference [2, 15]: −0.25
Cholesterol-free [2, 18]: 1.284
Complete ([2]; NCI-H292 cells, complete media): 1.033

C=C1CCC2CC1C2(C)C (stereo not drawn) [β-Pinene]
Cholesterol-free media + simvastatin (0.04 μM) [1, 23]: 1.724
Complete Media [1, 24]: 1.464
Difference [1, 9]: −0.26
Difference [2, 6]: −0.30
Cholesterol-free [2, 18]: 0.968
Complete ([2]; NCI-H292 cells, complete media): 0.6726

Osimertinib (dimesylate)
Cholesterol-free media + simvastatin (0.04 μM) [1, 3]: 0.4427
Complete Media [1, 4]: 0.3618
Difference ([1]; complete media vs cholesterol-free media + simvastatin (0.04 μM), […]): −0.08
Difference [2, 15]: −0.05
Cholesterol-free [2, 7]: 0.1916
Complete [2, 8]: 0.1371

Clc1ccc(C(c2ccccc2Cl)C(Cl)Cl)cc1 (centres unmarked) [Mitotane]
Cholesterol-free media + simvastatin (0.04 μM) [1, 23]: 1.345
Complete Media [1, 24]: 1.125
Difference [1, 9]: −0.22
Difference [2, 6]: −0.20
Cholesterol-free [2, 18]: 1.108
Complete ([2]; NCI-H292 cells, complete media): 0.9109
